Reference: patent publication EP0075895A2, “Pharmaceutical amides, and preparation, formulations and use thereof” (THE WELLCOME FOUNDATION LIMITED, priority 1981, dated 1983)
Counter-ions that a name gives are not always drawn.

Biological target: T1, enkephalinase Al (Rattus norvegicus, UniProt P07861)
T1 construct: the solubilised enzymes contained in the supernatent separated by DEAE-cellulose column chromatograph; from tissue; host or cells: rat striatum (washed membrane pellet, solubilised with Triton X-100, then DEAE-cellulose and Sephacryl S.300 chromatography)
T1 sequence (P07861 1-750): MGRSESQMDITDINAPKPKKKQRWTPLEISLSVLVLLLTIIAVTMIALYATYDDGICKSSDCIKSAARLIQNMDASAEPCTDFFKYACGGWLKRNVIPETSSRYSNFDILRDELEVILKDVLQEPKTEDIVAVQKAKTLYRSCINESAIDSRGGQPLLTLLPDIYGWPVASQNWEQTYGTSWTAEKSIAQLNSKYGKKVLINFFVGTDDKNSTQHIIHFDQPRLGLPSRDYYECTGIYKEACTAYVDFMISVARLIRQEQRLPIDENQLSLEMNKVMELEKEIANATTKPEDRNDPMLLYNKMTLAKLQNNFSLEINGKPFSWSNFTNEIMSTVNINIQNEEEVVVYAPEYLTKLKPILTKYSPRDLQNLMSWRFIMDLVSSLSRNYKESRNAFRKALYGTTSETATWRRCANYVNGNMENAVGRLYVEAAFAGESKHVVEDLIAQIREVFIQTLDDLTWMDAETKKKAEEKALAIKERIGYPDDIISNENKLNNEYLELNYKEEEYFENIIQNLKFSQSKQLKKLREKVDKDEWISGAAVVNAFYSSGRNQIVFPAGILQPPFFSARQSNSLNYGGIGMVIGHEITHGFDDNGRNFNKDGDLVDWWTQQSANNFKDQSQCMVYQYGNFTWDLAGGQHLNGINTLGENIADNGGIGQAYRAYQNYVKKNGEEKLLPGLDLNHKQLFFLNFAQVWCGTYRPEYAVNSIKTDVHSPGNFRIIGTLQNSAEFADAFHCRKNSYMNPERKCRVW
Experiment: enkephalinase-inhibiting activity (3H-TGG generation from 3H-leucine enkephalin, TLC separation, scintillation counting)
Format: biochemical, Rats
Conditions: approximate IC50 determined graphically; concentration required for 50% inhibition of 3H-TGG generation; leucine enkephalin 5 x 10^-5M, 30°C
Source text: Rats were killed by decapitation and the striata dissected out on ice. […] The resulting supernatent was discarded and the remaining pellet washed three times.
Enkephalinase-inhibiting activity was estimated by the following procedure.

Compound	IC50
O=C(O)CNC(=O)[C@H](Cc1ccccc1)NP(=O)(O)O [compound 2, N-Phosphoryl-L-phenylalanyl-glycine trisodium salt]	0.015 µM
N-(Phosphoryl-phenylalanyl)leucine [compound 1]	0.007 µM
